Values quoted from earlier work, collected in patent publication US20110295365A1, “Anti-viral compositions and methods for administration” (Searete LLC, a limited liability corporation of the State …, priority 2010, published 2011).

Tests used:
[1] = in vivo

Row | Compound | inhibition of viral entry (varicella zoster virus) | passage across the placenta from mother to child [1]
1 | O=C[C@@H](O)[C@@H](O)[C@H](O)[C@H](O)COP(=O)(O)O [mannose 6-phosphate] | inhibition of viral entry | –
2 | enfuvirtide | – | do not efficiently pass from mother to child
3 | heparin | inhibition of viral entry | –
